Columns and labels:
Format in all cases: in vivo
Matricaria = assay: Pre-emergence test/greenhouse; conditions: after three weeks
Procedure: (§1) Pre-emergence Test Solvent: 5 parts by weight of acetone Emulsifier: 1 part by weight of alkylaryl polyglycol ether To produce a suitable preparation of active compound, 1 part by weight of active compound is mixed with the stated amount of solvent, the stated amount of emulsifier is added and the concentrate is diluted with water to the desired concentration. Seeds of the test plants are sown in normal soil. After about 24 hours, the soil is sprayed with the preparation of the active compound in such a way as to apply the particular amounts of active compound desired per unit area The concentration of the spray liquor is chosen so that the particular amounts of active compound desired are applied in 1000 l of water/ha. After three weeks, the degree of damage to the plants is rated in % damage in comparison to the development of the untreated control. The figures denote: [table]

Chenopodium = assay: Pre-emergence test/greenhouse; conditions: after three weeks
Procedure: as §1

Lolium [1] = assay: Pre-emergence test/greenhouse; conditions: after three weeks
Procedure: as §1

Solanum [2] = assay: Pre-emergence test/greenhouse; conditions: after three weeks
Procedure: as §1

Maize = assay: Pre-emergence test/greenhouse; conditions: after three weeks
Procedure: as §1

Alopecurus [3] = assay: Pre-emergence test/greenhouse; conditions: after three weeks
Procedure: as §1

Sorghum [4] = assay: Pre-emergence test/greenhouse; conditions: after three weeks
Procedure: as §1

Amaranthus = assay: Pre-emergence test/greenhouse; conditions: after three weeks
Procedure: as §1

weeds [5] = assay: Pre-emergence test; conditions: cf. Tables A-1 to A-5
Procedure: as §1

Stellaria = assay: Post-emergence test/greenhouse; conditions: after three weeks
Procedure: as §1, with “Post-emergence” for “Pre-emergence”, “Test plants which have a height” for “Seeds”, “5-15 cm” for “the test plants”, “are” for “are sown in normal soil. After about 24 hours, the soil is”, “area.” for “area”

Xanthium = assay: Post-emergence test/greenhouse; conditions: post-emergence, after three weeks
Procedure: as §1, with “Post-emergence” for “Pre-emergence”, “Test plants which have a height” for “Seeds”, “5-15 cm” for “the test plants”, “are” for “are sown in normal soil. After about 24 hours, the soil is”, “area.” for “area”

Lolium [6] = assay: Post-emergence test/greenhouse; conditions: after three weeks
Procedure: as §1, with “Post-emergence” for “Pre-emergence”, “Test plants which have a height” for “Seeds”, “5-15 cm” for “the test plants”, “are” for “are sown in normal soil. After about 24 hours, the soil is”, “area.” for “area”

Solanum [7] = assay: Post-emergence test/greenhouse; conditions: post-emergence, after three weeks
Procedure: as §1, with “Post-emergence” for “Pre-emergence”, “Test plants which have a height” for “Seeds”, “5-15 cm” for “the test plants”, “are” for “are sown in normal soil. After about 24 hours, the soil is”, “area.” for “area”

Wheat [8] = assay: Post-emergence test/greenhouse; conditions: 60 g ai./ha, after three weeks
Procedure: as §1, with “Post-emergence” for “Pre-emergence”, “Test plants which have a height” for “Seeds”, “5-15 cm” for “the test plants”, “are” for “are sown in normal soil. After about 24 hours, the soil is”, “area.” for “area”

Ipomoea = assay: Post-emergence test/greenhouse; conditions: after three weeks
Procedure: as §1, with “Post-emergence” for “Pre-emergence”, “Test plants which have a height” for “Seeds”, “5-15 cm” for “the test plants”, “are” for “are sown in normal soil. After about 24 hours, the soil is”, “area.” for “area”

Alopecurus [9] = assay: Post-emergence test/greenhouse; conditions: after three weeks
Procedure: as §1, with “Post-emergence” for “Pre-emergence”, “Test plants which have a height” for “Seeds”, “5-15 cm” for “the test plants”, “are” for “are sown in normal soil. After about 24 hours, the soil is”, “area.” for “area”

Sorghum [10] = assay: Post-emergence test/greenhouse; conditions: post-emergence, after three weeks
Procedure: as §1, with “Post-emergence” for “Pre-emergence”, “Test plants which have a height” for “Seeds”, “5-15 cm” for “the test plants”, “are” for “are sown in normal soil. After about 24 hours, the soil is”, “area.” for “area”

weeds [11] = assay: Post-emergence test; conditions: cf. Tables B-1 to B-4
Procedure: as §1, with “Post-emergence” for “Pre-emergence”, “Test plants which have a height” for “Seeds”, “5-15 cm” for “the test plants”, “are” for “are sown in normal soil. After about 24 hours, the soil is”, “area.” for “area”

Soya beans = assay: Pre-emergence test/greenhouse; conditions: 125 g ai./ha, after three weeks
Procedure: as §1

Wheat [12] = assay: Pre-emergence test/greenhouse; conditions: 60 g ai./ha, after three weeks
Procedure: as §1

Veronica = assay: Pre-emergence test/greenhouse; conditions: 60 g ai./ha, after three weeks
Procedure: as §1

CCOc1nn(C(=O)NS(=O)(=O)c2c(OC(F)(F)F)cccc2SCC)c(=O)n1C [Example 6]
% damage, Matricaria (Matricaria; 125 g ai./ha): 100%
% damage, Chenopodium (Chenopodium; 125 g ai./ha): 100%
% damage, Lolium (Lolium [1]; 125 g ai./ha): 100%
% damage, Solanum (Solanum [2]; 125 g ai./ha): 100%
% damage, Maize (Maize; 125 g ai./ha): 0%
% damage, Alopecurus (Alopecurus [3]; 125 g ai./ha): 100%
% damage, Sorghum (Sorghum [4]; 125 g ai./ha): 80%
% damage, Amaranthus (Amaranthus; 125 g ai./ha): 100%
activity against weeds (weeds [5]): very strong activity
% damage, Stellaria (Stellaria; 60 g ai./ha): 95%
% damage, Xanthium (Xanthium; 60 g ai./ha): 95%
% damage, Lolium (Lolium [6]; 60 g ai./ha): 50%
% damage, Solanum (Solanum [7]; 60 g ai./ha): 95%
% damage, Wheat (Wheat [8]): 5%
% damage, Ipomoea (Ipomoea; 60 g ai./ha): 90%
% damage, Alopecurus (Alopecurus [9]; 60 g ai./ha): 60%
% damage, Sorghum (Sorghum [10]; 60 g ai./ha): 70%
activity against weeds (weeds [11]): very strong activity

CCOc1nn(C(=O)NS(=O)(=O)c2c(OC)cccc2SCC)c(=O)n1C [Example 7]
% damage, Matricaria (Matricaria; 125 g ai./ha): 70%
% damage, Chenopodium (Chenopodium; 125 g ai./ha): 100%
% damage, Lolium (Lolium [1]; 125 g ai./ha): 100%
% damage, Solanum (Solanum [2]; 125 g ai./ha): 100%
% damage, Maize (Maize; 125 g ai./ha): 0%
% damage, Alopecurus (Alopecurus [3]; 125 g ai./ha): 100%
% damage, Sorghum (Sorghum [4]; 125 g ai./ha): 90%
% damage, Amaranthus (Amaranthus; 125 g ai./ha): 100%
activity against weeds (weeds [5]): very strong activity
% damage, Stellaria (Stellaria; 60 g ai./ha): 100%
% damage, Lolium (Lolium [6]; 60 g ai./ha): 95%
% damage, Solanum (Solanum [7]; 60 g ai./ha): 95%
% damage, Wheat (Wheat [8]): 10%
% damage, Ipomoea (Ipomoea; 60 g ai./ha): 95%
% damage, Alopecurus (Alopecurus [9]; 60 g ai./ha): 95%
% damage, Sorghum (Sorghum [10]; 60 g ai./ha): 95%
activity against weeds (weeds [11]): very strong activity

CCOc1nn(C(=O)NS(=O)(=O)c2c(OC)cccc2SC)c(=O)n1C [Example 20]
% damage, Matricaria (Matricaria; 60 g ai./ha): 100%
% damage, Chenopodium (Chenopodium; 60 g ai./ha): 100%
% damage, Lolium (Lolium [1]; 60 g ai./ha): 95%
% damage, Solanum (Solanum [2]; 60 g ai./ha): 100%
% damage, Maize (Maize; 60 g ai./ha): 0%
% damage, Alopecurus (Alopecurus [3]; 60 g ai./ha): 100%
% damage, Sorghum (Sorghum [4]; 60 g ai./ha): 100%
% damage, Amaranthus (Amaranthus; 60 g ai./ha): 100%
activity against weeds (weeds [5]): very strong activity
% damage, Stellaria (Stellaria; 60 g ai./ha): 100%
% damage, Xanthium (Xanthium; 60 g ai./ha): 95%
% damage, Lolium (Lolium [6]; 60 g ai./ha): 90%
% damage, Solanum (Solanum [7]; 60 g ai./ha): 100%
% damage, Wheat (Wheat [8]): 20%
% damage, Ipomoea (Ipomoea; 60 g ai./ha): 95%
% damage, Alopecurus (Alopecurus [9]; 60 g ai./ha): 95%
% damage, Sorghum (Sorghum [10]; 60 g ai./ha): 100%
activity against weeds (weeds [11]): very strong activity

COc1cccc(SC)c1S(=O)(=O)NC(=O)n1nc(OC)n(C)c1=O [Example 21]
% damage, Matricaria (Matricaria; 60 g ai./ha): 90%
% damage, Chenopodium (Chenopodium; 60 g ai./ha): 100%
% damage, Lolium (Lolium [1]; 60 g ai./ha): 100%
% damage, Solanum (Solanum [2]; 60 g ai./ha): 100%
% damage, Maize (Maize; 60 g ai./ha): 20%
% damage, Alopecurus (Alopecurus [3]; 60 g ai./ha): 100%
% damage, Sorghum (Sorghum [4]; 60 g ai./ha): 100%
% damage, Amaranthus (Amaranthus; 60 g ai./ha): 100%
activity against weeds (weeds [5]): very strong activity
% damage, Stellaria (Stellaria; 60 g ai./ha): 100%
% damage, Lolium (Lolium [6]; 60 g ai./ha): 95%
% damage, Solanum (Solanum [7]; 60 g ai./ha): 100%
% damage, Ipomoea (Ipomoea; 60 g ai./ha): 90%
% damage, Alopecurus (Alopecurus [9]; 60 g ai./ha): 100%
% damage, Sorghum (Sorghum [10]; 60 g ai./ha): 100%
activity against weeds (weeds [11]): very strong activity

CCOc1nn(C(=O)NS(=O)(=O)c2c(OC(F)(F)F)cccc2SC(C)C)c(=O)n1C [Example 25]
% damage, Matricaria (Matricaria; 125 g ai./ha): 95%
% damage, Soya beans (Soya beans): 20%
% damage, Chenopodium (Chenopodium; 125 g ai./ha): 100%
% damage, Lolium (Lolium [1]; 125 g ai./ha): 70%
% damage, Solanum (Solanum [2]; 125 g ai./ha): 100%
% damage, Maize (Maize; 125 g ai./ha): 0%
% damage, Alopecurus (Alopecurus [3]; 125 g ai./ha): 100%
% damage, Sorghum (Sorghum [4]; 125 g ai./ha): 80%
% damage, Amaranthus (Amaranthus; 125 g ai./ha): 95%
activity against weeds (weeds [5]): very strong activity

CCSc1cccc(OC)c1S(=O)(=O)NC(=O)n1nc(OC)n(C)c1=O [Example 30]
% damage, Matricaria (Matricaria; 60 g ai./ha): 95%
% damage, Chenopodium (Chenopodium; 60 g ai./ha): 90%
% damage, Lolium (Lolium [1]; 60 g ai./ha): 100%
% damage, Solanum (Solanum [2]; 60 g ai./ha): 95%
% damage, Maize (Maize; 60 g ai./ha): 0%
% damage, Alopecurus (Alopecurus [3]; 60 g ai./ha): 100%
% damage, Sorghum (Sorghum [4]; 60 g ai./ha): 95%
% damage, Amaranthus (Amaranthus; 60 g ai./ha): 95%
activity against weeds (weeds [5]): very strong activity
% damage, Stellaria (Stellaria; 125 g ai./ha): 100%
% damage, Xanthium (Xanthium; 125 g ai./ha): 100%
% damage, Lolium (Lolium [6]; 125 g ai./ha): 90%
% damage, Solanum (Solanum [7]; 125 g ai./ha): 100%
% damage, Ipomoea (Ipomoea; 125 g ai./ha): 90%
% damage, Alopecurus (Alopecurus [9]; 125 g ai./ha): 95%
% damage, Sorghum (Sorghum [10]; 125 g ai./ha): 100%
activity against weeds (weeds [11]): very strong activity

CCc1nn(C(=O)NS(=O)(=O)c2c(OC(F)(F)F)cccc2SC)c(=O)n1C [Example 34]
% damage, Chenopodium (Chenopodium; 60 g ai./ha): 90%
% damage, Lolium (Lolium [1]; 60 g ai./ha): 80%
% damage, Solanum (Solanum [2]; 60 g ai./ha): 95%
% damage, Maize (Maize; 60 g ai./ha): 20%
% damage, Alopecurus (Alopecurus [3]; 60 g ai./ha): 100%
% damage, Sorghum (Sorghum [4]; 60 g ai./ha): 90%
% damage, Amaranthus (Amaranthus; 60 g ai./ha): 90%
activity against weeds (weeds [5]): very strong activity
% damage, Stellaria (Stellaria; 60 g ai./ha): 80%
% damage, Xanthium (Xanthium; 60 g ai./ha): 95%
% damage, Lolium (Lolium [6]; 60 g ai./ha): 70%
% damage, Solanum (Solanum [7]; 60 g ai./ha): 95%
% damage, Wheat (Wheat [8]): 20%
% damage, Ipomoea (Ipomoea; 60 g ai./ha): 80%
% damage, Alopecurus (Alopecurus [9]; 60 g ai./ha): 90%
% damage, Sorghum (Sorghum [10]; 60 g ai./ha): 100%
activity against weeds (weeds [11]): very strong activity

CCOc1nn(C(=O)NS(=O)(=O)c2c(OC(F)(F)F)cccc2SC)c(=O)n1C [Example 35]
% damage, Chenopodium (Chenopodium; 60 g ai./ha): 100%
% damage, Lolium (Lolium [1]; 60 g ai./ha): 95%
% damage, Solanum (Solanum [2]; 60 g ai./ha): 95%
% damage, Wheat (Wheat [12]): 10%
% damage, Veronica (Veronica): 100%
% damage, Alopecurus (Alopecurus [3]; 60 g ai./ha): 100%
% damage, Sorghum (Sorghum [4]; 60 g ai./ha): 90%
% damage, Amaranthus (Amaranthus; 60 g ai./ha): 100%
activity against weeds (weeds [5]): very strong activity
